Results taken from ChEMBL document CHEMBL4425168, “Dehydrozingerone Inspired Styryl Hydrazine Thiazole Hybrids as Promising Class of Antimycobacterial Agents” (ACS Med Chem Lett, 2016).
Converted amounts (≈) assume the structure as drawn.

What was measured:
Assay type in all cases: functional, organism-based
[1] = tested on: Mycobacterium tuberculosis; experiment: Antitubercular activity against Mycobacterium tuberculosis H37Rv FQ-R1 harboring gyrB D94N mutant after 5 days
[2] = tested on: Mycobacterium tuberculosis; experiment: Antitubercular activity against Mycobacterium tuberculosis H37Rv RIF-R1 harboring nrpoB S522L mutant after 5 days
[3] = tested on: Mycobacterium tuberculosis; experiment: Antitubercular activity against Mycobacterium tuberculosis H37Rv INH-R1 harboring katG Y155 mutant after 5 days

| SMILES | IC50 [1] [µM] | IC90 [1] [µM] | MIC [1] [µM] | IC50 [2] [µM] | IC90 [2] [µM] | MIC [2] [µM] | IC50 [3] [µM] | IC90 [3] [µM] | MIC [3] [µM] |
| --- | --- | --- | --- | --- | --- | --- | --- | --- | --- |
| COc1ccc(/C=C/C(C)=N/Nc2nc(-c3ccc(N)cc3)cs2)cc1OC | 2.3 | 33 | 21 (≈ 8.28 µg/mL) | 0.54 | 2.6 | 2.2 (≈ 0.868 µg/mL) | 0.68 | 3.8 | 3.2 (≈ 1.26 µg/mL) |
| C[C@H]1COc2c(N3CCN(C)CC3)c(F)cc3c(=O)c(C(=O)O)cn1c23.C[C@H]1COc2c(N3CCN(C)CC3)c(F)cc3c(=O)c(C(=O)O)cn1c23.O [LEVOFLOXACIN] | 12 | 22 | 20 | 0.59 | 0.91 | 0.76 | 0.64 | 1.4 | 1.2 |
| COc1ccc(/C=C/C(C)=N/Nc2nc(-c3c(OC)cccc3OC)cs2)cc1OC | 13 | > 25 | 33 (≈ 14.5 µg/mL) | 7 | 19 | 17 (≈ 7.47 µg/mL) | 9.1 | > 25 | 32 (≈ 14.1 µg/mL) |
| COc1ccc(-c2csc(N/N=C(C)/C=C/c3ccc(OC)c(OC)c3)n2)cc1 | 23 | > 50 | 22 (≈ 9.01 µg/mL) | 11 | > 50 | 25 (≈ 10.2 µg/mL) | 12 | > 50 | 15 (≈ 6.14 µg/mL) |
| COc1ccc(/C=C/C(C)=N/NC(N)=S)cc1OC | 2.8 | 16 | 17 (≈ 4.75 µg/mL) | 1.1 | 4.6 | 4 (≈ 1.12 µg/mL) | 1.3 | 6.6 | 5.3 (≈ 1.48 µg/mL) |
| CO[C@H]1/C=C/O[C@@]2(C)Oc3c(C)c(O)c4c(O)c(c(/C=N/N5CCN(C)CC5)c(O)c4c3C2=O)NC(=O)/C(C)=C\C=C\[C@H](C)[C@H](O)[C@@H](C)[C@@H](O)[C@@H](C)[C@H](OC(C)=O)[C@@H]1C [RIFAMPIN] | 0.013 | 0.039 | 0.027 (≈ 0.0222 µg/mL) | 1.2 | 2.3 | 2 (≈ 1.65 µg/mL) | 0.0084 | 0.022 | 0.018 (≈ 0.0148 µg/mL) |
| NNC(=O)c1ccncc1 [ISONIAZID] | 0.36 | 0.47 | 0.35 (≈ 0.048 µg/mL) | 0.15 | 0.21 | 0.17 (≈ 0.0233 µg/mL) | > 200 | > 200 | >200 |
| COc1ccc(/C=C/C(C)=N/Nc2nc(-c3ccc(OC)c(OC)c3)cs2)cc1OC | 18 | > 200 | 30 (≈ 13.2 µg/mL) | 9.2 | 27 | 28 (≈ 12.3 µg/mL) | 12 | > 200 | 24 (≈ 10.5 µg/mL) |
